Measurements from patent US6525001B1, “Substituted pyrimidine and pyridine herbicides” (Mid-American Commercialization Corporation, priority 1997, dated 2003).

Key:
Type in all cases: in vivo
[1] = system: arrowleaf sida (Sida rhombifolia); assay: Test C
[2] = system: barnyardgrass (Echinochloa crus-galli); assay: Test C
[3] = system: cocklebur (Xanthium strumarium); assay: Test C; design: key: 0 was no effect; 100 was complete control
[4] = system: common ragweed (Ambrosia elatior); assay: Test C
[5] = system: fall panicum (Panicum dichotomiflorum); assay: Test C; design: key: 0 was no effect; 100 was complete control
[6] = system: giant foxtail (Setaria faberii); assay: Test C; design: key: 0 was no effect; 100 was complete control
[7] = system: ladysthumb smartweed (Polygonum persicaria); assay: Test C
[8] = system: large crabgrass (Digitaria sanguinalis); assay: Test C; design: key: 0 was no effect; 100 was complete control
[9] = system: redroot pigweed (Amaranthus retroflexus); assay: Test C; design: key: 0 was no effect; 100 was complete control
[10] = system: velvetleaf (Abutilon theophrasti); assay: Test C; design: key: 0 was no effect; 100 was complete control
[11] = system: Spanishneedles (Bidens bipinnata); assay: Test E pre-/postemergence/post directed
Procedure, shortened: (§1)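 Greenhouse pot-grown plants; compound in non-phytotoxic solvent with surfactant applied preemergence to soil within one day of planting, postemergence at two to four leaf stage (three to twenty cm), or post-directed to plant base and soil. Visual injury rated 13 to 21 days after application, 0 (none) to 100 (complete control).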

[12] = system: bermudagrass (Cynodon dactylon); assay: Test E pre-/postemergence/post directed
Procedure, shortened: as §1

[13] = system: common ragweed (Ambrosia elatior); assay: Test E pre-/postemergence/post directed
Procedure, shortened: as §1

[14] = system: itchgrass (Rottboellia exaltata); assay: Test E pre-/postemergence/post directed
Procedure, shortened: as §1

[15] = system: large crabgrass (Digitaria sanguinalis); assay: Test E pre-/postemergence/post directed
Procedure, shortened: as §1

[16] = system: sandbur (Cenchrus echinatus); assay: Test E pre-/postemergence/post directed; conditions: PREEMERGENCE
Procedure, shortened: as §1

[17] = system: common ragweed (Ambrosia elatior); assay: Test E pre-/postemergence/post directed; design: key: 0 is no effect; 100 is complete control; conditions: PREEMERGENCE
Procedure, shortened: as §1

[18] = system: dallisgrass (Paspalum dilatatum); assay: Test E pre-/postemergence/post directed; design: key: 0 is no effect; 100 is complete control
Procedure, shortened: as §1

[19] = system: goosegrass (Eleusine indica); assay: Test E pre-/postemergence/post directed; design: key: 0 is no effect; 100 is complete control
Procedure, shortened: as §1

[20] = system: guineagrass (Panicum maximum); assay: Test E pre-/postemergence/post directed; design: key: 0 is no effect; 100 is complete control
Procedure, shortened: as §1

For Cc1cnc(-c2ccc(C(F)(F)F)cc2)nc1Cn1ccc(C(F)(F)F)n1 [compound 9], the “Plant response rating, Arrowleaf sida” value ([1]; POSTEMERGENCE, Rate 35 g/ha) was 80, the “Plant response rating, Arrowleaf sida” value ([1]; POSTEMERGENCE, Rate 70 g/ha) was 90 and the “Plant response rating, Arrowleaf sida” value ([1]; POSTEMERGENCE, Rate 140 g/ha) was 90. The “Plant response rating, Arrowleaf sida” value ([1]; PREEMERGENCE, Rate 35 g/ha) was 90, the “Plant response rating, Arrowleaf sida” value ([1]; PREEMERGENCE, Rate 70 g/ha) was 95 and the “Plant response rating, Arrowleaf sida” value ([1]; PREEMERGENCE, Rate 140 g/ha) was 95. For the same molecule, the “Plant response rating, Barnyardgrass” value ([2]; POSTEMERGENCE, Rate 35 g/ha) was 10, the “Plant response rating, Barnyardgrass” value ([2]; POSTEMERGENCE, Rate 70 g/ha) was 25 and the “Plant response rating, Barnyardgrass” value ([2]; POSTEMERGENCE, Rate 140 g/ha) was 25. The “Plant response rating, Barnyardgrass” value ([2]; PREEMERGENCE, Rate 35 g/ha) was 10, the “Plant response rating, Barnyardgrass” value ([2]; PREEMERGENCE, Rate 70 g/ha) was 50 and the “Plant response rating, Barnyardgrass” value ([2]; PREEMERGENCE, Rate 140 g/ha) was 50. For the same molecule, the “Plant response rating, Cocklebur” value ([3]; POSTEMERGENCE, Rate 35 g/ha) was 60, the “Plant response rating, Cocklebur” value ([3]; POSTEMERGENCE, Rate 70 g/ha) was 80 and the “Plant response rating, Cocklebur” value ([3]; POSTEMERGENCE, Rate 140 g/ha) was 80. For the same molecule, the “Plant response rating, Cocklebur” value ([3]; PREEMERGENCE, Rate 35 g/ha) was 0, the “Plant response rating, Cocklebur” value ([3]; PREEMERGENCE, Rate 70 g/ha) was 0 and the “Plant response rating, Cocklebur” value ([3]; PREEMERGENCE, Rate 140 g/ha) was 0. The “Plant response rating, Common ragweed” value ([4]; POSTEMERGENCE, Rate 70 g/ha) was 30, the “Plant response rating, Common ragweed” value ([4]; POSTEMERGENCE, Rate 140 g/ha) was 10 and the “Plant response rating, Common ragweed” value ([4]; PREEMERGENCE, Rate 35 g/ha) was 80. For the same molecule, the “Plant response rating, Common ragweed” value ([4]; PREEMERGENCE, Rate 70 g/ha) was 95, the “Plant response rating, Common ragweed” value ([4]; PREEMERGENCE, Rate 140 g/ha) was 75 and the “Plant response rating, Fall panicum” value ([5]; POSTEMERGENCE, Rate 35 g/ha) was 5. The “Plant response rating, Fall panicum” value ([5]; POSTEMERGENCE, Rate 70 g/ha) was 20, the “Plant response rating, Fall panicum” value ([5]; POSTEMERGENCE, Rate 140 g/ha) was 30 and the “Plant response rating, Fall panicum” value ([5]; PREEMERGENCE, Rate 35 g/ha) was 85. The “Plant response rating, Fall panicum” value ([5]; PREEMERGENCE, Rate 70 g/ha) was 90, the “Plant response rating, Fall panicum” value ([5]; PREEMERGENCE, Rate 140 g/ha) was 100 and the “Plant response rating, Giant foxtail” value ([6]; POSTEMERGENCE, Rate 35 g/ha) was 15. The “Plant response rating, Giant foxtail” value ([6]; POSTEMERGENCE, Rate 70 g/ha) was 15, the “Plant response rating, Giant foxtail” value ([6]; POSTEMERGENCE, Rate 140 g/ha) was 30 and the “Plant response rating, Giant foxtail” value ([6]; PREEMERGENCE, Rate 35 g/ha) was 90. For the same molecule, the “Plant response rating, Giant foxtail” value ([6]; PREEMERGENCE, Rate 70 g/ha) was 100, the “Plant response rating, Giant foxtail” value ([6]; PREEMERGENCE, Rate 140 g/ha) was 100 and the “Plant response rating, Ladysthumb” value ([7]; POSTEMERGENCE, Rate 35 g/ha) was 20. The “Plant response rating, Ladysthumb” value ([7]; POSTEMERGENCE, Rate 70 g/ha) was 30, the “Plant response rating, Ladysthumb” value ([7]; POSTEMERGENCE, Rate 140 g/ha) was 30 and the “Plant response rating, Ladysthumb” value ([7]; PREEMERGENCE, Rate 35 g/ha) was 35. For the same molecule, the “Plant response rating, Ladysthumb” value ([7]; PREEMERGENCE, Rate 70 g/ha) was 85, the “Plant response rating, Ladysthumb” value ([7]; PREEMERGENCE, Rate 140 g/ha) was 90 and the “Plant response rating, Large crabgrass” value ([8]; POSTEMERGENCE, Rate 35 g/ha) was 20. For the same molecule, the “Plant response rating, Large crabgrass” value ([8]; POSTEMERGENCE, Rate 70 g/ha) was 40, the “Plant response rating, Large crabgrass” value ([8]; POSTEMERGENCE, Rate 140 g/ha) was 50 and the “Plant response rating, Large crabgrass” value ([8]; PREEMERGENCE, Rate 35 g/ha) was 95. For the same molecule, the “Plant response rating, Large crabgrass” value ([8]; PREEMERGENCE, Rate 70 g/ha) was 100, the “Plant response rating, Large crabgrass” value ([8]; PREEMERGENCE, Rate 140 g/ha) was 100 and the “Plant response rating, Redroot pigweed” value ([9]; POSTEMERGENCE, Rate 35 g/ha) was 60. For the same molecule, the “Plant response rating, Redroot pigweed” value ([9]; POSTEMERGENCE, Rate 70 g/ha) was 70, the “Plant response rating, Redroot pigweed” value ([9]; PREEMERGENCE, Rate 35 g/ha) was 100 and the “Plant response rating, Redroot pigweed” value ([9]; PREEMERGENCE, Rate 70 g/ha) was 100. For the same molecule, the “Plant response rating, Redroot pigweed” value ([9]; PREEMERGENCE, Rate 140 g/ha) was 100, the “Plant response rating, Velvetleaf” value ([10]; POSTEMERGENCE, Rate 35 g/ha) was 10 and the “Plant response rating, Velvetleaf” value ([10]; POSTEMERGENCE, Rate 70 g/ha) was 70. For the same molecule, the “Plant response rating, Velvetleaf” value ([10]; POSTEMERGENCE, Rate 140 g/ha) was 90, the “Plant response rating, Velvetleaf” value ([10]; PREEMERGENCE, Rate 35 g/ha) was 75 and the “Plant response rating, Velvetleaf” value ([10]; PREEMERGENCE, Rate 70 g/ha) was 95. For the same molecule, the “Plant response rating, Velvetleaf” value ([10]; PREEMERGENCE, Rate 140 g/ha) was 100, the “Plant response rating, Spanishneedles” value ([11]; POSTEMERGENCE, Rate 125 g/ha) was 10 and the “Plant response rating, Spanishneedles” value ([11]; POSTEMERGENCE, Rate 250 g/ha) was 15. The “Plant response rating, Spanishneedles” value ([11]; PREEMERGENCE, Rate 64 g/ha) was 20, the “Plant response rating, Spanishneedles” value ([11]; PREEMERGENCE, Rate 125 g/ha) was 30 and the “Plant response rating, Spanishneedles” value ([11]; PREEMERGENCE, Rate 250 g/ha) was 60. The “Plant response rating, Bermudagrass” value ([12]; POSTEMERGENCE, Rate 125 g/ha) was 10, the “Plant response rating, Bermudagrass” value ([12]; POSTEMERGENCE, Rate 250 g/ha) was 10 and the “Plant response rating, Bermudagrass” value ([12]; PREEMERGENCE, Rate 32 g/ha) was 70. The “Plant response rating, Bermudagrass” value ([12]; PREEMERGENCE, Rate 64 g/ha) was 98, the “Plant response rating, Com. ragweed” value ([13]; POSTEMERGENCE, Rate 125 g/ha) was 10 and the “Plant response rating, Com. ragweed” value ([13]; POSTEMERGENCE, Rate 250 g/ha) was 10. The “Plant response rating, Com. ragweed” value ([13]; PREEMERGENCE, Rate 32 g/ha) was 10, the “Plant response rating, Com. ragweed” value ([13]; PREEMERGENCE, Rate 125 g/ha) was 98 and the “Plant response rating, Itchgrass” value ([14]; POSTEMERGENCE, Rate 125 g/ha) was 30. For the same molecule, the “Plant response rating, Itchgrass” value ([14]; POSTEMERGENCE, Rate 250 g/ha) was 30, the “Plant response rating, Itchgrass” value ([14]; PREEMERGENCE, Rate 64 g/ha) was 85 and the “Plant response rating, Large crabgrass” value ([15]; POSTEMERGENCE, Rate 125 g/ha) was 5. The “Plant response rating, Large crabgrass” value ([15]; POSTEMERGENCE, Rate 250 g/ha) was 10, the “Plant response rating, Large crabgrass” value ([15]; PREEMERGENCE, Rate 32 g/ha) was 70 and the “Plant response rating, Sandbur” value ([16]; Rate 125 g/ha) was 10. The “Plant response rating, Sandbur” value ([16]; Rate 250 g/ha) was 20, the “Plant response rating, Com. ragweed” value ([17]; Rate 64 g/ha) was 100 and the “Plant response rating, Com. ragweed” value ([17]; Rate 250 g/ha) was 100. For the same molecule, the “Plant response rating, Dallisgrass” value ([18]; POSTEMERGENCE, Rate 125 g/ha) was 10, the “Plant response rating, Dallisgrass” value ([18]; POSTEMERGENCE, Rate 250 g/ha) was 20 and the “Plant response rating, Dallisgrass” value ([18]; PREEMERGENCE, Rate 32 g/ha) was 85. The “Plant response rating, Dallisgrass” value ([18]; PREEMERGENCE, Rate 64 g/ha) was 100, the “Plant response rating, Dallisgrass” value ([18]; PREEMERGENCE, Rate 125 g/ha) was 100 and the “Plant response rating, Dallisgrass” value ([18]; PREEMERGENCE, Rate 250 g/ha) was 100. For the same molecule, the “Plant response rating, Goosegrass” value ([19]; POSTEMERGENCE, Rate 125 g/ha) was 5, the “Plant response rating, Goosegrass” value ([19]; POSTEMERGENCE, Rate 250 g/ha) was 10 and the “Plant response rating, Goosegrass” value ([19]; PREEMERGENCE, Rate 32 g/ha) was 90. The “Plant response rating, Goosegrass” value ([19]; PREEMERGENCE, Rate 64 g/ha) was 100, the “Plant response rating, Goosegrass” value ([19]; PREEMERGENCE, Rate 125 g/ha) was 100 and the “Plant response rating, Goosegrass” value ([19]; PREEMERGENCE, Rate 250 g/ha) was 100. The “Plant response rating, Guineagrass” value ([20]; POSTEMERGENCE, Rate 125 g/ha) was 35, the “Plant response rating, Guineagrass” value ([20]; POSTEMERGENCE, Rate 250 g/ha) was 35 and the “Plant response rating, Guineagrass” value ([20]; PREEMERGENCE, Rate 32 g/ha) was 20. The “Plant response rating, Guineagrass” value ([20]; PREEMERGENCE, Rate 64 g/ha) was 85, the “Plant response rating, Guineagrass” value ([20]; PREEMERGENCE, Rate 125 g/ha) was 90 and the “Plant response rating, Guineagrass” value ([20]; PREEMERGENCE, Rate 250 g/ha) was 100.
